The values that follow come from patent publication US4209517A, “α-Ethylenic alcohols and ketones, their preparation, and their use as medicaments” (Unicler, priority 1978, dated 1980).

Molecules are shown by their SMILES.

A short description of data set [1]: Remarks on the hydrochloride (Table I). The class given is physicochemical. The following applies: hydrochloride column of Table I.
The nature of data set [2]: Toxicity: LD50 in mice, intraperitoneal route (Log-Probits method of Miller and Tainter). Conditions: mouse, in vivo, IP. How it is done:
The LD50 of the products was measured in mice by the intraperitoneal route in accordance with the "Log-Probits" method of Miller and Tainter (Proc. Soc. Exptl. Biol. Med. 1944; 57, 261-264).

Data set [3] has as its system narcosis produced by hexobarbital. Kind of data set: Modification of narcosis produced by hexobarbital. The following applies: Mus musculus, 0.5 h, mice, half an hour before hexobarbital 70 mg/kg, read-out: Narcosis potentialisation T (percentage increase in sleeping time induced by hexobarbital); for change in vivo at 200 mg/kg: 200 mg/kg IP; for change in vivo at 100 mg/kg: 100 mg/kg IP. The data set is classed as in vivo. As for the experimental part:
Mice, each weighing about 20 g, received the product under investigation by the intraperitoneal route. Half an hour later sodium hexobarbital was injected by the same route at a dosage of 70 mg/kg.
The animals were placed on a hot plate kept at a constant temperature of 27° C. It is considered that sleep is established when a mouse, placed in the dorsal decubitus, is incapable of turning over and standing on its paws.
The narcosis potentialisation is evaluated by the percentage increase in sleeping time induced by hexobarbital (T).

For data set [4], the system named is attack caused by pentetrazol. Kind of data set: Anti-convulsant action: attack caused by pentetrazol. The data set is classed as in vivo. The following applies: mice, 30 min before pentetrazol 125 mg/kg IP.
Method: A convulsive attack is caused by pentetrazol which, when injected into mice intraperitoneally at a dosage of 125 mg/kg, produces 100% mortality in 5 to 7 minutes.
Mice, each weighing about 20 g, are given the product being studied intraperitoneally, thirty minutes before the administration of pentetrazol.
Data set [5] has as its system epileptic attack by electric shock. As to the kind of experiment: Anti-convulsant action: electric shock. The data set is classed as in vivo. The following applies: Rattus norvegicus, 0.5 h, male rats, 30 min before 30 volts for 0.5 second, read-out: Electric shock: percentage protection (P); for responders at 200 mg/kg: 200 mg/kg IP; for responders at 100 mg/kg: 100 mg/kg IP. As for the experimental part:
The application of an electric current of 30 volts for 0.5 second to the cerebral hemispheres produces an epileptic attack.
Male rats each weighing 180 to 200 g receive intraperitoneally the solvent or the product being investigated. Thirty minutes later the animals are subjected to electric shocks. It is noted whether the attack is complete or incomplete, and the percentage protection (P) conferred by the product administered is determined.

Data set [6] concerns blepharospasm caused by reserpine. Kind of data set: Antagonism to reserpine (blepharospasm). The data set is classed as in vivo. Details: key: The inhibition of blepharospasm is marked from 0 to +++; ±: The inhibition of blepharospasm is marked from 0 to +++; The inhibition of blepharospasm is marked from 0 to +++; The inhibition of blepharospasm is marked from 0 to +++. Conditions: male Swiss mice, before reserpine 5 mg/kg IP. How it is done:
(Chen G., and Bohner B., (1961) J. pharmacol. Exptl. Therap. 131, 179).
Reserpine administered to mice in a dosage of 5 mg/kg intraperitoneally produces in the first few hours a more or less complete closure of the eyelids in most of the animals. The administration of certain products inhibits the blepharospasm caused by reserpine.
Male Swiss mice are distributed into batches of 10 mice and each experiment involves at least 3 batches:
a control batch that receives only the solvent and reserpine
a batch treated with a reference product: we selected Imipramine
a treated batch receiving the product being tested.
The experimental products are administered intraperitoneally either 30 minutes or 2 hours before the intraperitoneal injection of reserpine at a dosage of 5 mg/kg, in order to study their activity as a function of time.
The degree of ptosis for each eye and each animal is observed every 30 minutes for 4 to 5 hours, using RUBIN's score method. The activity of the product is determined by comparison with the result obtained with the treated control batch. The inhibition of blepharospasm is marked from 0 to +++.

Another data set deals with central nervous system. As to the kind of experiment: Activity on the central nervous system (overall conclusion of the pharmacological tests). The class given is in vivo. Conditions: conclusion in words. The source says: This was investigated by observing the behaviour of animals, by studying the modifications in narcosis produced by hexobarbital and studying the anti-convulsant power.

[7] abbreviates: Mus musculus, 0.5 h, 200 mg/kg IP, read-out: Pentrazole: percentage protection (P).

In the case of `OC(C=Cc1ccc2c(c1)OCO2)CCCN1CCCCC1` (centres unmarked) [AB 754], the Hygroscopicity of hydrochloride entry in data set [1] is recorded as “hygroscopic”.
`O=C(C=Cc1ccc2c(c1)OCO2)CN1CCOCC1` [compound 996] registered a 50% lethal dose (LD50) in data set [2] of 750 mg/kg. In data set [3] (75 mg/kg IP), the change in vivo at 75 mg/kg amounted to 106%. Moreover, the responders at 75 mg/kg is 0% in data set [4] (Mus musculus, 0.5 h, 75 mg/kg IP, read-out: Pentrazole: percentage protection (P)) and 50% in data set [5] (75 mg/kg IP). In data set [6] (75 mg/kg IP), the “Inhibition of blepharospasm caused by reserpine” value (from here on “Inhibition”) is “+”. The Usefulness as anti-depressants entry with central nervous system is given as “particularly useful as anti-depressants”.
In the case of `OC(C=Cc1ccc2c(c1)OCO2)CN1CCOCC1` (centres unmarked) [compound 997], the LD50 in data set [2] came to 500 mg/kg. In addition, the change in vivo at 50 mg/kg in data set [3] (50 mg/kg IP) stood at 0%. The responders at 50 mg/kg in data set [4] (Mus musculus, 0.5 h, 50 mg/kg IP, read-out: Pentrazole: percentage protection (P)) turned out to be 0%; in data set [5] (50 mg/kg IP) it was 60%. For the same compound, in data set [4] (50 mg/kg IP), the “Pentrazole: time of death as multiple of that (t) of the control group” value (“Pentrazole: time of death” for short) worked out at 2 t ×. In data set [6] (50 mg/kg IP), the “Inhibition” value was “+++”. Further, in the data set with central nervous system, the Usefulness as anti-depressants entry was “particularly useful as anti-depressants”.
In the case of `CC(C)=CCCC(=O)C=Cc1ccc2c(c1)OCO2` [compound 998], the LD50 in data set [2] worked out at 2000 mg/kg. Moreover, the change in vivo at 200 mg/kg in data set [3] is 490%. Moreover, the responders at 200 mg/kg was 0% in data set [4] (setting [7]) and 30% in data set [5]. In data set [6] (200 mg/kg IP), the “Inhibition” value is 0.
`CC(C)=CCCC(O)C=Cc1ccc2c(c1)OCO2` (centres unmarked) [compound 999]: in data set [2], the 50% lethal dose (LD50) worked out at 1000 mg/kg. In addition, the change in vivo at 100 mg/kg in data set [3] amounted to 201%. Also, the responders at 100 mg/kg in data set [4] (Mus musculus, 0.5 h, 100 mg/kg IP, read-out: Pentrazole: percentage protection (P)) came out at 0%; in data set [5], 90%. Also, the “Pentrazole: time of death” value in data set [4] (100 mg/kg IP) amounted to 5 t ×. For the same compound, in data set [6] (50 mg/kg IP), the “Inhibition” value is reported as 0.
Turning to `CC(C)=CC(=O)C=Cc1ccc2c(c1)OCO2` [compound 1003], the median lethal dose (LD50) in data set [2] came out at 2000 mg/kg. In data set [3], the change in vivo at 200 mg/kg was determined as 223%. The responders at 200 mg/kg in data set [4] (setting [7]) and in data set [5] was 0% each time. Moreover, the “Pentrazole: time of death” value in data set [4] (200 mg/kg IP) was determined as 15 t ×. Further, the “Inhibition” value in data set [6] (200 mg/kg IP) is given as 0.
`O=C(C=Cc1ccc2c(c1)OCO2)C1CCCCC1` [compound 1036] registered a 50% lethal dose (LD50) in data set [2] of 2000 mg/kg. In data set [3], the change in vivo at 200 mg/kg is 135%. Besides, the responders at 200 mg/kg in data set [4] (setting [7]) amounted to 10%; in data set [5] it was 0%. In addition, in data set [4] (200 mg/kg IP), the “Pentrazole: time of death” value is listed as 2.6 t ×.
As to `OC(C=Cc1ccc2c(c1)OCO2)C1CCCCC1` (centres unmarked) [compound 1037], the LD50 in data set [2] was 1000 mg/kg. Further, in data set [3], the change in vivo at 100 mg/kg stood at 225%. In data set [5], the responders at 100 mg/kg is 0%.
In turn, `CC(CN1CCOCC1)C(O)C=Cc1ccc2c(c1)OCO2` (centres unmarked) [compound 1156] returned an LD50 in data set [2] of 600 mg/kg. For the same compound, the change in vivo at 60 mg/kg in data set [3] (60 mg/kg IP) amounted to 79%. In addition, the responders at 60 mg/kg in data set [4] (Mus musculus, 0.5 h, 60 mg/kg IP, read-out: Pentrazole: percentage protection (P)) is 10%; in data set [5] (60 mg/kg IP), 50%. The “Pentrazole: time of death” value in data set [4] (60 mg/kg IP) was found to be 1.6 t ×. In addition, the “Inhibition” value in data set [6] (60 mg/kg IP) was 0.
For the compound `CC(CN1CCN(C)CC1)C(=O)C=Cc1ccc2c(c1)OCO2` (centres unmarked) [compound 1201], in data set [2], the LD50 turned out to be 75 mg/kg. Moreover, the change in vivo at 7.5 mg/kg in data set [3] (7.5 mg/kg IP) is 17%. The responders at 7.5 mg/kg is 0% in data set [4] (Mus musculus, 0.5 h, 7.5 mg/kg IP, read-out: Pentrazole: percentage protection (P)) and 10% in data set [5] (7.5 mg/kg IP). For the same compound, the “Pentrazole: time of death” value in data set [4] (7.5 mg/kg IP) was determined as 2 t ×. In data set [6] (7.5 mg/kg IP), the “Inhibition” value is recorded as “±”.
In data set [2], `CC(CN1CCN(C)CC1)C(O)C=Cc1ccc2c(c1)OCO2` (centres unmarked) [compound 1202] showed an LD50 of 250 mg/kg. Moreover, the change in vivo at 25 mg/kg in data set [3] (25 mg/kg IP) was determined as 5%. Further, the responders at 25 mg/kg came out at 10% in data set [4] (Mus musculus, 0.5 h, 25 mg/kg IP, read-out: Pentrazole: percentage protection (P)) and 10% in data set [5] (25 mg/kg IP). The “Pentrazole: time of death” value in data set [4] (25 mg/kg IP) was 2 t ×. Further, the “Inhibition” value in data set [6] (25 mg/kg IP) was 0.
The compound `CC(C(=O)C=Cc1ccc2c(c1)OCO2)N1CCOCC1` (centres unmarked) [compound 1321] came in with a 50% lethal dose (LD50) in data set [2] of 850 mg/kg. For the same compound, in data set [3] (85 mg/kg IP), the change in vivo at 85 mg/kg was 227%. In addition, the responders at 85 mg/kg amounted to 20% in data set [4] (Mus musculus, 0.5 h, 85 mg/kg IP, read-out: Pentrazole: percentage protection (P)) and 50% in data set [5] (85 mg/kg IP). In data set [6] (85 mg/kg IP), the “Inhibition” value was 0.
As for `CC(C(O)C=Cc1ccc2c(c1)OCO2)N1CCOCC1` (centres unmarked) [compound 1340], in data set [2], the 50% lethal dose (LD50) came out at 400 mg/kg. Moreover, the responders at 40 mg/kg in data set [4] (Mus musculus, 0.5 h, 40 mg/kg IP, read-out: Pentrazole: percentage protection (P)) came out at 10%; in data set [5] (40 mg/kg IP) it was 10%.

As usually defined, the LD50 is the dose at which mortality reaches 50%.
